Experimental data taken from US20260224547A1, “COMPOSITIONS COMPRISING ANATABINE AND USES THEREOF” (Philip Morris Products S.A., priority 2021, published 2026).
Where a name gives a salt, the structure may show the parent alone.

How the values were obtained:
NRF2 = NRF2 luciferase assay (NRF2/ARE reporter cell line); format: cell-based, human; settings: for effect on the NRF2 pathway: FIG. 4, tobacco alkaloids; for maximum log 2-fold change of NRF2 activation: at 12.5 μM for sulforaphane, 125 μM and 250 μM for DMF, 1000 μM for anatabine
Text: A HEK-293 NRF2/ARE luciferase reporter cell line was acquired from Signosis (USA). According to Signosis, this NRF2 luciferase reporter stable cell line had been stably transfected with pTA-ARE-luciferase reporter vector, which contains 4 repeats of antioxidant response binding sites, a minimal promoter upstream of the firefly luciferase coding region, along with a hygromycin expression vector. Following selection, the hygromycin resistant clones were subsequently screened for TBHQ-induced luciferase activity. The clone with the highest fold induction was selected and expanded to produce this stable cell line.
4, 8 or 24 hours after stimulation of the NRF2 reporter cells luminescence was measured using a FLUOstar Omega plate reader.

NRF2 reporter cells = experiment: Cell viability measured with ATP assay alongside NRF2 translocation (FIG. 4 to 7); settings: for cell viability, percentage of the vehicle control: human
Text: FIGS. 5A to 5C: bar and line graphs showing NRF2 translocation presented as log 2 fold change compared to vehicle control (bars) and cell viability measured with ATP assay and presented as a percentage of the vehicle control (line) for anatabine (FIG. 5A), dimethyl fumarate (AlfaAesar) (FIG. 5B), and nornicotine (FIG. 5C).
FIGS. 6A to 6C: bar graphs showing NRF2 translocation presented as log 2 fold change compared to vehicle control (bars) and cell viability measured with ATP assay and presented as a percentage of the vehicle control (line) for anatabine (FIG. 6A), dimethyl fumarate (Sigma) (FIG. 6B), and sulforaphane (FIG. 6C).
FIGS. 7A and […]: bar graphs showing NRF2 translocation presented as log 2 fold change compared to vehicle control (bars) and cell viability measured with ATP assay and presented as a percentage of the vehicle control (line) for cotinine (FIG. 7A) and nicotine (FIG. 7B).

| Compound | effect on the NRF2 pathway (NRF2) | maximum log 2-fold change of NRF2 activation (NRF2) | cell viability at higher concentrations (NRF2 reporter cells) | cell viability, percentage of the vehicle control (NRF2 reporter cells; 500 μM) | further results |
| --- | --- | --- | --- | --- | --- |
| c1cncc([C@@H]2CCCN2)c1 [nornicotine] | do not substantially affect |  |  |  |  |
| CN1CCCC1c1cccnc1 (centres unmarked) [nicotine] | do not substantially affect |  |  |  |  |
| C[S+]([O-])CCCCN=C=S (centres unmarked) [sulforaphane] |  | approximately 5 | significantly reduced |  | NRF2 activation, log 2-fold change (NRF2; 0.78 to 50 μM (P<0.01)): increase; cell viability, percentage of the vehicle control (NRF2 reporter cells; 25 μM): around 50% |
| COC(=O)/C=C/C(=O)OC [DMF, dimethyl fumarate] |  | 6 to 7 | significantly reduced | ~0% | NRF2 activation, log 2-fold change (NRF2; 125 μM, DMF from AlfaAesar): 6.74; NRF2 activation, log 2-fold change (NRF2; 125 μM, DMF from Sigma): 6.90; NRF2 activation, log 2-fold change (NRF2; 250 μM, DMF from AlfaAesar): 6.81; NRF2 activation, log 2-fold change (NRF2; 250 μM, DMF from Sigma): 6.67 |
| CN1C(=O)CC[C@H]1c1cccnc1 [cotinine] | do not substantially affect |  |  | below 85% | cell viability, percentage of the vehicle control (NRF2 reporter cells; 1000 μM): below 85% |
| c1cncc([C@@H]2CCCCN2)c1 [anabasine] | do not substantially affect |  |  |  |  |
